Test results as given in patent US9642854B2, “Flavanoid compounds and process for preparation thereof” (Council of Scientific & Industrial Research, priority 2009, dated 2017).
In brackets after ≈: the same amount, converted by molar mass. Read-outs that look alike come from different tables or passages of the source.

What was measured:
Type in all cases: cell-based, Helicobacter pylori
[1] = system: H. pylori; test: Anti H. pylori screening by disc diffusion susceptibility assay; settings: for Inhibition zone diameter (score): 100 and 200 mg/disc (so in the source); for Inhibition Zone Diameter (mm): spacer molecules
Method: The discs were impregnated with […] of each of the compounds, dissolved either in ethanol or DMSO, and the zone of inhibition was measured after 72 h of growth under microaerophilic conditions at 37° C. Inhibition zone diameter ranging 10-20 mm was given a score of ^+, 20-30 mm as ^++ and that of >30 mm as ^+++, as obtained employing dose range of […]/disc. The detailed structural information of the molecules is provided under ‘Description of the Compounds’.
Methods and protocols for the determination of inhibition zone diameter are as stated under Experiment 1, and that of MIC values by microbroth dilution assay as in Experiment 3. ‘Nil’ means zone of inhibition below 10 mm.
The anti H. pylori activity of all 16 flavonoid molecules, 2 naturally isolated and 14 synthetic derivatives, was screened by disc diffusion sensitivity assay employing 2 clinical strains HP001 and HP002, and three standard strains ATCC® 700392, 43504 and 49503. A 0.5 mL inoculum (10^8 CFU/mL) for each bacterial strain tested was flooded on freshly prepared Brain Heart Infusion (BHI) agar plates supplemented with 7% FCS, 0.5% IsoVitalex and 0.0025% DENT® and the discs (5 mm diameter) containing different compounds or antibiotics (dissolved either in ethanol or DMSO) were placed on the agar surface. After incubation for 3 days in a microaerophilic atmosphere at 37° C., the diameter of the zone of inhibition was measured (Glupczynsky, 1996; McNulty et al., 2002).

[2] = system: H. pylori; test: Anti H. pylori spectrum (MIC) by agar dilution method; settings: Helicobacter pylori; for MIC50: MIC against 50% of the strains of the panel, read-out: MIC50
Method: MIC was determined using agar dilution assay following the CLSI® guidelines. Six clinical isolates and four standard strains were used for this study. Five microlitre of freshly grown 3-day old culture (˜1×10^8 CFU/mL) was streaked in plates containing 2-fold serial dilution of the compounds ranging […], and incubated under microaerophilic condition at 37° C. After 72 h, the plates were inspected visually for absence of growth to assess the MIC values. The experiment was performed in duplicates. MIC50 is defined as the dose (μg/ml) required for killing 50% of the strains.
Plates contained two-fold serial dilutions of the compounds ranging from […]. Five microlitres of 3-day old freshly grown H. pylori culture (^˜10^8 CFU/mL) was inoculated onto drug-containing BHI agar plates supplemented with 7% FCS, 0.5% IsoVitalex and 0.0025% DENT®, which were then incubated for 3 days under microaerophilic condition at 37° C.

[3] = system: H. pylori; test: MIC and MBC by microbroth dilution assay; settings: Helicobacter pylori
Method: The compounds, serially diluted ([…]) in Muller Hinton broth containing 5% FCS, were incubated in 96-well microtitre plate containing fresh cultures of HP001 (˜5.5×10^6 CFU/mL) or ATCC® 43504 (2.65×10^6 CFU/ml) in a final volume of […]. After 72-h of incubation under microaerophilic condition at 37° C., […] of cultures wherein no growth had been detected were streaked on fresh brain heart infusion agar plates for MBC determination.
In microbroth dilution assay employing one clinical and one standard strain, both the bacteriostatic and the bactericidal values were determined for all four compounds as well as for clarithromycin (Table 4). Two-fold serial dilutions were prepared in 96-well microtitre plate containing a total volume of 0.1 mL Mueller Hinton broth supplemented with 5% FCS. A 3-day old liquid culture was diluted 10 times in Mueller Hinton broth and 0.1 mL of these cultures was inoculated into each well to give a final concentration of ˜10^6 CFU/mL. The plates were incubated for 3 days in a microaerophilic atmosphere at 37° C. Following incubation, the plates were examined visually, and the lowest concentration showing complete inhibition of growth was recorded as the MIC of the respective compound (Hachem et al., 1996). Aliquots (0.1 mL) of 72-h culture in which no growth had been detected were taken from the wells of the above microtitre plates and used to streak on fresh BHI agar plates.

[4] = system: H. pylori; test: Time kill kinetic analyses in biphasic culture; settings: for killing at MIC dose (1×MIC): up to 36 h
[5] = system: H. pylori; test: Acid stability study (pH ~2.0, 2 h, then MIC/MBC by microbroth dilution); settings: Helicobacter pylori
Method: Details of experimental protocol are described under Experiment 7. MIC/MBC values were determined by microbroth dilution assay.
A 100 μL stock of CPP-1, NMC-1, NMC-2 and CPP-3 (1-2 mg/mL) was treated with 20-30 μL of 0.12 NHCl to bring the pH of the solution to ^˜2.0, and kept at 25° C. for 2 h (Funatogawa et al., 2004). Such acid-treated samples were then serially diluted (2 fold) with medium in 96-well microtitre plates to determine the MIC and the MBC values by microbroth dilution assay as detailed under Experiment 3.

[6] = ATCC standard strain 43504, 72 h
[7] = ATCC standard strain 49503, 72 h
[8] = ATCC standard strain 700392, 72 h
[9] = 72 h, panel of 6 clinical isolates and 4 standard strains, read-out: MIC Range
[10] = clinical strain HP001, read-out: MIC
[11] = clinical strain HP002, read-out: MIC
[12] = clinical strain HP003, read-out: MIC
[13] = clinical strain HP004, read-out: MIC
[14] = clinical strain HP005, read-out: MIC
[15] = clinical strain HP006, read-out: MIC
[16] = standard strain 43504, read-out: MIC
[17] = standard strain 43629, read-out: MIC
[18] = standard strain 49503, read-out: MIC
[19] = standard strain 700392, read-out: MIC
[20] = ATCC43504, microbroth dilution, ATCC 43504
[21] = 2 h, pH ~2.0, 2 h, 25° C., 43504, read-out: MBC, Acid treated
[22] = 2 h, pH ~2.0, 2 h, 25° C., 43504, read-out: MIC, Acid treated
[23] = 2 h, pH ~2.0, 2 h, 25° C., HP001, read-out: MBC, Acid treated
[24] = 2 h, pH ~2.0, 2 h, 25° C., HP001, read-out: MIC, Acid treated
[25] = not acid treated, 43504, read-out: MBC, Control
[26] = not acid treated, 43504, read-out: MIC, Control
[27] = not acid treated, HP001, read-out: MBC, Control
[28] = not acid treated, HP001, read-out: MIC, Control

MIC [2, 9] [µg/mL]	MIC50 [2] [µg/mL]	MIC [2, 10] [µg/mL]	MIC [2, 11] [µg/mL]	MIC [2, 12] [µg/mL]	MIC [2, 13] [µg/mL]	MIC [2, 14] [µg/mL]	MIC [2, 15] [µg/mL]	MIC [2, 16] [µg/mL]	MIC [2, 17] [µg/mL]	MIC [2, 18] [µg/mL]	MIC [2, 19] [µg/mL]	MIC [3, 20] [µg/mL]	MIC ([3]; microbroth dilution, HP001) [µg/mL]	Structure (SMILES)	Inhibition zone diameter (score) [1, 6]	Inhibition zone diameter (score) [1, 7]	Inhibition zone diameter (score) [1, 8]	Inhibition zone diameter (score) ([1]; clinical strain HP001, 72 h)	MBC [3, 20] [µg/mL]	MBC ([3]; microbroth dilution, HP001) [µg/mL]	further results
0.016 to 0.1 (≈ 0.0214 to 0.134 µM)	0.032 (≈ 0.0428 µM)	0.016 (≈ 0.0214 µM)	0.032 (≈ 0.0428 µM)	< 0.02	0.04 (≈ 0.0535 µM)	0.08 (≈ 0.107 µM)	0.08 (≈ 0.107 µM)	0.032 (≈ 0.0428 µM)	0.1 (≈ 0.134 µM)	0.016 (≈ 0.0214 µM)	0.064 (≈ 0.0856 µM)	0.04 (≈ 0.0535 µM)	0.01 (≈ 0.0134 µM)	CC[C@H]1OC(=O)[C@H](C)[C@@H](O[C@H]2C[C@@](C)(OC)[C@@H](O)[C@H](C)O2)[C@H](C)[C@@H](O[C@@H]2O[C@H](C)C[C@H](N(C)C)[C@H]2O)[C@](C)(OC)C[C@@H](C)C(=O)[C@H](C)[C@@H](O)[C@]1(C)O [Clarithromycin, reference compound]	–	–	–	–	0.08 (≈ 0.107 µM)	0.04 (≈ 0.0535 µM)	inhibition zone ([1]; strain 43504, 0.04 mg/disc): 20 mm; inhibition zone ([1]; strain 49503, 0.005 mg/disc): 15 mm; inhibition zone ([1]; strain 700392, 0.4 mg/disc): 28 mm; inhibition zone ([1]; strains HP001 and HP002, 0.01 mg/disc): 18 mm; decrease in cell count ([4]; HP001, at around 9 h): 1 log; time at which killing/inhibition became evident ([4]; HP001, biphasic culture): around 9 h
6.25 to 12.5 (≈ 14.3 to 28.6 µM)	6.25 (≈ 14.3 µM)	12.5 (≈ 28.6 µM)	6.25 (≈ 14.3 µM)	< 6.25	< 6.25	< 6.25	< 6.25	< 12.5	12.5 (≈ 28.6 µM)	6.25 (≈ 14.3 µM)	12.5 (≈ 28.6 µM)	6.25 (≈ 14.3 µM)	6.25 (≈ 14.3 µM)	CN1CCN(CCCCCCOc2cc(O)c3c(=O)cc(-c4ccccc4)oc3c2)CC1 [NMC-1, 5-Hydroxy-7-[6-(4-methyl-piperazin-1-yl)-hexyloxy]-2-phenyl-chromen-4-one]	+ (Inhibition zone diameter ranging 10-20 mm was given a score of ^+)	+ (Inhibition zone diameter ranging 10-20 mm was given a score of ^+)	+ (Inhibition zone diameter ranging 10-20 mm was given a score of ^+)	+ (Inhibition zone diameter ranging 10-20 mm was given a score of ^+)	25 (≈ 57.3 µM)	12.5 (≈ 28.6 µM)	Inhibition zone diameter (score) ([1]; clinical strain HP002, 72 h): ++ (20-30 mm as ^++); MIC50 ([2]; 72 h): ~6.25 µg/mL (≈ 14.3 µM); decrease in cell count within 36 h ([4]; ATCC 43504, at MIC value (6.25 μg/mL)): 1 log; killing at MIC dose (1×MIC) ([4]; HP001): could not however exert complete killing even at 36 h; MBC [5, 21]: < 25000 µg/mL; MIC [5, 22]: 25000 µg/mL (≈ 57300 µM); MBC [5, 23]: 25000 µg/mL (≈ 57300 µM); MIC [5, 24]: 12500 µg/mL (≈ 28600 µM); MBC [5, 25]: 25000 µg/mL (≈ 57300 µM); MIC [5, 26]: 6250 µg/mL (≈ 14300 µM); MBC [5, 27]: 12500 µg/mL (≈ 28600 µM); MIC [5, 28]: 6250 µg/mL (≈ 14300 µM)
–	–	–	–	–	–	–	–	–	–	–	–	> 400	> 400	CCCOc1ccc2c(=O)cc(-c3ccccc3)oc2c1 [reference compound]	–	–	–	–	–	–	Inhibition Zone Diameter (mm) ([1]; ATCC 43504): Nil (‘Nil’ means zone of inhibition below 10 mm.); Inhibition Zone Diameter (mm) ([1]; HP001): Nil (‘Nil’ means zone of inhibition below 10 mm.)

Structure (SMILES)	MIC [2, 9] [µg/mL]	MIC50 [2] [µg/mL]	MIC [2, 10] [µg/mL]	MIC [2, 11] [µg/mL]	MIC [2, 12] [µg/mL]	MIC [2, 13] [µg/mL]	MIC [2, 14] [µg/mL]	MIC [2, 15] [µg/mL]	MIC [2, 16] [µg/mL]	MIC [2, 17] [µg/mL]	MIC [2, 18] [µg/mL]	MIC [2, 19] [µg/mL]	MIC [3, 20] [µg/mL]	MIC ([3]; microbroth dilution, HP001) [µg/mL]	Inhibition zone diameter (score) [1, 6]	Inhibition zone diameter (score) [1, 7]	Inhibition zone diameter (score) [1, 8]	Inhibition zone diameter (score) ([1]; clinical strain HP001, 72 h)	MBC [3, 20] [µg/mL]	MBC ([3]; microbroth dilution, HP001) [µg/mL]	further results
O=c1cc(-c2ccccc2)oc2cc(OCCCCN3CCCCC3)cc(O)c12 [CPP-3, 5-Hydroxy-2-phenyl-7-(4-piperidin-1-yl-butoxy)-chromen-4-one]	6.25 to 100 (≈ 15.9 to 254 µM)	12.5 (≈ 31.8 µM)	25 (≈ 63.5 µM)	25 (≈ 63.5 µM)	< 12.5	< 12.5	< 12.5	< 12.5	12.5 (≈ 31.8 µM)	100 (≈ 254 µM)	25 (≈ 63.5 µM)	25 (≈ 63.5 µM)	12.5 (≈ 31.8 µM)	12.5 (≈ 31.8 µM)	++ (20-30 mm as ^++)	++ (20-30 mm as ^++)	++ (20-30 mm as ^++)	++ (20-30 mm as ^++)	25 (≈ 63.5 µM)	25 (≈ 63.5 µM)	zone of inhibition at 100 µg/disc ([1]; Helicobacter pylori, 72 h, 100 and 200 μg/disc, majority of the strains, read-out: Activity class by inhibition zone diameter): > 30 mm; Inhibition zone diameter (score) ([1]; clinical strain HP002, 72 h): +++ (that of >30 mm as ^+++); MIC50 ([2]; 72 h): ~12.5 µg/mL (≈ 31.8 µM); time to kill the bacteria totally ([4]; ATCC 43504, 50 μg/mL): about 12 h; time to complete killing ([4]; ATCC 43504, 2×MIC (clarithromycin 0.08, CPP-1 and NMC-1 12.5, NMC-2 and CPP-3 25 μg/mL)): about 12 h; killing at MIC dose ([4]; ATCC 43504, MIC ([…])): no killing potency; killing at MIC dose (1×MIC) ([4]; HP001): could not exert any effect on bactericidal activity; MBC [5, 21]: < 50000 µg/mL; MIC [5, 22]: 50000 µg/mL (≈ 127000 µM); MBC [5, 23]: 50000 µg/mL (≈ 127000 µM); MIC [5, 24]: 25000 µg/mL (≈ 63500 µM); MBC [5, 25]: 25000 µg/mL (≈ 63500 µM); MIC [5, 26]: 12500 µg/mL (≈ 31800 µM); MBC [5, 27]: 25000 µg/mL (≈ 63500 µM); MIC [5, 28]: 12500 µg/mL (≈ 31800 µM)
